The results in this text go back to doi:10.1101/2023.12.04.569845, “Identification of 4-(6-((2-methoxyphenyl)amino)pyrazin-2-yl)benzoic acids as CSNK2A inhibitors with antiviral activity and improved selectivity over PIM3” (bioRxiv, 2023).

Read-outs that look alike come from different tables or passages of the source.

Holding throughout (assay): biochemical
What all share (set-up): Thermal shift (DSF, SYPRO Orange) Tm shift of recombinant kinase domains at 10 uM compound

One assay deals with T1, DMPK1 (Homo sapiens, UniProt Q09013).
T1 construct: gene DMPK
T1 sequence (Q09013 1-629): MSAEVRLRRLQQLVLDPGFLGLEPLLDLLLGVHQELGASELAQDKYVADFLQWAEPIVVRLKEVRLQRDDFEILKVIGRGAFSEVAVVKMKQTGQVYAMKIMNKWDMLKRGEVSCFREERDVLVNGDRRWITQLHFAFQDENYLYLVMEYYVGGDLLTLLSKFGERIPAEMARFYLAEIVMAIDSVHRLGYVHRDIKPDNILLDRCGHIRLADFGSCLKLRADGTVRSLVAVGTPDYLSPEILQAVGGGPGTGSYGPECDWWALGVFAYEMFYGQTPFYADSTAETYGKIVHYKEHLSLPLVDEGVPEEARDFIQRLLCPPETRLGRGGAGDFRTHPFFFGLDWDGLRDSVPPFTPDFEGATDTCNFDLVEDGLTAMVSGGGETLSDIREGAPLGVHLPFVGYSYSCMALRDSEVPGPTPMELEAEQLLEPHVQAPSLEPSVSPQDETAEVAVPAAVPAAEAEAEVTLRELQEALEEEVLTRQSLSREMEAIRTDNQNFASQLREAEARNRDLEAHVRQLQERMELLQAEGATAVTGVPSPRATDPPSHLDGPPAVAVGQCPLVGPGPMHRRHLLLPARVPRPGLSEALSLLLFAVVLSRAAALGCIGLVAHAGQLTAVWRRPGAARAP

The target of a further assay is T2, ULK3 (Homo sapiens, UniProt Q6PHR2).
T2 sequence (Q6PHR2 1-472): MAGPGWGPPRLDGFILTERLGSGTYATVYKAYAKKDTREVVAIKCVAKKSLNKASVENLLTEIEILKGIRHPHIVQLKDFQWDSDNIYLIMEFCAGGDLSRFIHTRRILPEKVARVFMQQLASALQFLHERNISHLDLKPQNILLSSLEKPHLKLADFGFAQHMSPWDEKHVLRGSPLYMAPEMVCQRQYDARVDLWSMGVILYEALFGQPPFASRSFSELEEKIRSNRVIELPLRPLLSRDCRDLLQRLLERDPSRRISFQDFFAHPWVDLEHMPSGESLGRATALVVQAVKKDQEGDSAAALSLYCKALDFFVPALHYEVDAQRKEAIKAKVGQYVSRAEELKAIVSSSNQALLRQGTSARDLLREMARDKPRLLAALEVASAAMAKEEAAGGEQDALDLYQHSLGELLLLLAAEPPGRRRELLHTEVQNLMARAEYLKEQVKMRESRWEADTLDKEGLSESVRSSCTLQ

A further assay has as its target T3, DYRK2 (Homo sapiens, UniProt Q92630).
T3 sequence (Q92630 1-601): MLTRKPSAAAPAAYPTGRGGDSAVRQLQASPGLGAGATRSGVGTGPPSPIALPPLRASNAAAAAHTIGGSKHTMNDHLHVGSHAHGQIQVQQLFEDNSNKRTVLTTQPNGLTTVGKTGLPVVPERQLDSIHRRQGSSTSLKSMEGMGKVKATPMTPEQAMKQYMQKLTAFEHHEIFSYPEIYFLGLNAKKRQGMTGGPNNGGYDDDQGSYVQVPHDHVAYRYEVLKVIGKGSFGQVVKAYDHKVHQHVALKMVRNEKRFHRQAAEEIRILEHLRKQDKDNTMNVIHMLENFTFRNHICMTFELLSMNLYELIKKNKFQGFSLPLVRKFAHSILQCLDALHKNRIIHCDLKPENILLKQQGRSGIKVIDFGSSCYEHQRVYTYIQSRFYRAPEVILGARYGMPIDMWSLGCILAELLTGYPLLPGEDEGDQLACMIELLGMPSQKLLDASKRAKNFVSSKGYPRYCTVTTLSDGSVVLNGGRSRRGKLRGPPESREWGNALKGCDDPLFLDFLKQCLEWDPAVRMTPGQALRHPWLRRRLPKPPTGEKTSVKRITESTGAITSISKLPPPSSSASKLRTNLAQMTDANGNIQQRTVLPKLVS

A further assay deals with T4, MST2 (Homo sapiens, UniProt Q13188).
T4 construct: gene STK3
T4 sequence (Q13188 1-491): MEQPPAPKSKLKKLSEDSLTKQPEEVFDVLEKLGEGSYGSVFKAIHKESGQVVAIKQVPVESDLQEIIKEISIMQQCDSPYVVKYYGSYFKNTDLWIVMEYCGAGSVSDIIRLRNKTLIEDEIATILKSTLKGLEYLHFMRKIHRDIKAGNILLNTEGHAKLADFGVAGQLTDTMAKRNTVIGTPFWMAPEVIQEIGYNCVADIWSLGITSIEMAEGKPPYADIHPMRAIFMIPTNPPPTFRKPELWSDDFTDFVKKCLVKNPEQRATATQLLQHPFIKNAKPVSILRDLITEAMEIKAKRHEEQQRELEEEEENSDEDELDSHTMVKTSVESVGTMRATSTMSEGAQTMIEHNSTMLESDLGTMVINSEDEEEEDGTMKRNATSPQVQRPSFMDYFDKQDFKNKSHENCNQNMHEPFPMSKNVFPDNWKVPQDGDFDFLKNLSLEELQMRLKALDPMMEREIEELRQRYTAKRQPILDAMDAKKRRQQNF

The target in a further assay is T5, DRAK2 (Homo sapiens, UniProt O94768).
T5 construct: gene STK17B
T5 sequence (O94768 1-372): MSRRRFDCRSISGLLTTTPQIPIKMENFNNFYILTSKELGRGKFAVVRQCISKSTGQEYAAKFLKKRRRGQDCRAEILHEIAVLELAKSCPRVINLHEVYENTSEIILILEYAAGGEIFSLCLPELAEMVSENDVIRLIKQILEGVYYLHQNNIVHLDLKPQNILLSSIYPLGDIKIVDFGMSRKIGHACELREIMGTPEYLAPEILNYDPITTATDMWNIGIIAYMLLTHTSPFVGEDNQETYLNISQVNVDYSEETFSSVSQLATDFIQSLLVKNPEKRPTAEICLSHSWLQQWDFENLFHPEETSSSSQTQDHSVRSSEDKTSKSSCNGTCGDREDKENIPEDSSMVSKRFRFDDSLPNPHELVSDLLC

Experimental for DMPK1: (§1) S23 Thermal stability kinase selectivity. The assay was performed as previously described. 9,10 Briefly, recombinant protein kinase domains at a concentration of 2 μM were mixed with 10 μM compound in a buffer containing 20 mM HEPES, pH 7.5, and 500 mM NaCl. SYPRO Orange (5000×, Invitrogen) was added as a fluorescence probe (1 µl per mL). Subsequently, temperature-dependent protein unfolding profiles were measured using the QuantStudio™ 5 realtime PCR machine (Thermo Fisher). […] The temperature was raised with a step rate of 3°C per minute. Data points were analysed with the internal software (Thermal Shift SoftwareTM Version 1.4, Thermo Fisher) using the Boltzmann equation to determine the inflection point of the transition curve.
Experimental for DRAK2: as §1
Experimental for DYRK2: as §1
Experimental for MST2: as §1
Experimental for ULK3: as §1

In the case of `CC(C)Oc1ccc2ccn(-c3cncc(-c4ccc(C(=O)O)cc4)n3)c2c1` [6c], the ΔTm at 10 µM was 0 °C at DMPK1 (read-out: 6c); 5 °C at ULK3 (read-out: 6c); 11 °C at DYRK2 (read-out: 6c); 3 °C on MST2 (read-out: 6c); 2 °C at DRAK2 (read-out: 6c).

Turning to `COc1ccc(OC(C)C)cc1Nc1cncc(-c2ccc(C(=O)O)cc2)n1` [7c], the ΔTm at 10 µM at DMPK1 (read-out: 7c) was 0 °C; on ULK3 (read-out: 7c), 3 °C; at DYRK2 (read-out: 7c), 9 °C; at MST2 (read-out: 7c) it was 2 °C; on DRAK2 (read-out: 7c), 0 °C.

On to `CC(C)Nc1ccc2cnn(-c3cncc(-c4ccc(C(=O)O)cc4)n3)c2c1` [compound 2, 2], for which the ΔTm at 10 µM on DMPK1 (read-out: 2) was determined as 0 °C; at ULK3 (read-out: 2), 7 °C; on DYRK2 (read-out: 2), 12 °C; at MST2 (read-out: 2) it was 4 °C; at DRAK2 (read-out: 2), 3 °C.
